Some results are limits rather than exact numbers.

One test deals with MRE11 (Homo sapiens (Human), UniProt P49959). In words: HTS nuclease assay (fluorescence-quenched 5′ overhang DNA substrate cleavage). It counts as biochemical. The conditions noted are these: 18 nM MRE11, 40 nM DNA substrate, analysis at t=4 h. How it is done:
DNA Substrate Preparation
The DNA substrate is prepared by mixing the oligonucleotides listed below in a 1:1 ratio to reach a final concentration of 6 μM in a buffer containing 50 mM Tris pH 7.5, 100 mM NaCl and 8 mM MgCl2.
The mixture is heat for 3 min at 65° C. and let to cool down slowly to RT. Then it is stored at −20° C.
This substrate is a 5′ overhang, which is a preferred substrate of MRE11. […] The fluorescence increases upon substrate cleavage by MRE11, when separation of the two labels occur.
The conditions of the assay are as follows:
Total reaction volume: 5 μL
DNA substrate concentration in the reaction: 40 nM
Inhibitor concentration range tested: 7 nM-50 μM
Each plate contains a series of high and low signal control wells, where no compound is added:
High signal: MRE11+DNA substrate
Low signal: DNA substrate only
These are used during data evaluation.
Two Extra Assay Controls:
1) To check whether unwinding of DNA by the compounds alone occurs.
The DNA substrate [CY5+BBQ(650)] is mixed with the compounds with no protein present.
The CY5 single stranded oligo is mixed with the compounds with no protein present.
The layout of the plates is created by the in-house software (CZ-Openscreen Prague) and this information is transferred to the robotic HTS station.
The reaction is started by the addition of DNA and the reaction time is counted from that moment, including a 15 min delay. Ten timepoints are measured:
The assay data analysis was performed at t=4 h. This corresponds to the time when the reaction is close to its maximum.
The data analysis was performed using the in-house software (CZ-Openscreen Prague) to obtain IC50 for each compound.

The next test relates to DR-GFP U2OS cells. In words: HR assay (GFP fluorescence by flow cytometry after I-SceI transfection). It counts as cell-based. Conditions: Homo sapiens, 25 μM inhibitor, 72 hours after transfection. The method, then: DR-GFP U2OS cells (Methods in Molecular Biology 2012, 920, 379.) were transfected with 2.5 μg of I-SceI-expressing pCAGGS vector and treated with the inhibitors at 25 μM concentration. 72 hours after the transfection, the cells were trypsinized and resuspended in 3% BSA in PBS. GFP fluorescence detection was carried out using a BD FACSVerse flow cytometer and data analyzed with FlowJo software.

Test [1] deals with Phosphorylated RPA32 S4/S8 in U2OS cells. In words: RPA assay (camptothecin-induced RPA phosphorylation). It counts as cell-based. Conditions: Homo sapiens, 1 h pre-treatment, 1 uM camptothecin 1 h; for inhibition at 10 µM: 10 μM inhibitor. The method, then:
U2OS cells were pre-treated for 1 h with MRE11 inhibitors followed by addition of 1 uM camptothecin for 1 h. Cells were lysed in SDS-PAGE loading buffer, sonicated and boiled at 70° C. for 10 min. Equal amounts of protein (50-100 μg) were analysed by Tris-glycine gel electrophoresis Expression levels were quantified using Multi Gauge software and expressed relative to loading control. Phosphorylated RPA32 S4/S8 (A300-245A, Bethyl Laboratories) 1:1000 dilution was used.

Chain of MRE11 (P49959 whole entry): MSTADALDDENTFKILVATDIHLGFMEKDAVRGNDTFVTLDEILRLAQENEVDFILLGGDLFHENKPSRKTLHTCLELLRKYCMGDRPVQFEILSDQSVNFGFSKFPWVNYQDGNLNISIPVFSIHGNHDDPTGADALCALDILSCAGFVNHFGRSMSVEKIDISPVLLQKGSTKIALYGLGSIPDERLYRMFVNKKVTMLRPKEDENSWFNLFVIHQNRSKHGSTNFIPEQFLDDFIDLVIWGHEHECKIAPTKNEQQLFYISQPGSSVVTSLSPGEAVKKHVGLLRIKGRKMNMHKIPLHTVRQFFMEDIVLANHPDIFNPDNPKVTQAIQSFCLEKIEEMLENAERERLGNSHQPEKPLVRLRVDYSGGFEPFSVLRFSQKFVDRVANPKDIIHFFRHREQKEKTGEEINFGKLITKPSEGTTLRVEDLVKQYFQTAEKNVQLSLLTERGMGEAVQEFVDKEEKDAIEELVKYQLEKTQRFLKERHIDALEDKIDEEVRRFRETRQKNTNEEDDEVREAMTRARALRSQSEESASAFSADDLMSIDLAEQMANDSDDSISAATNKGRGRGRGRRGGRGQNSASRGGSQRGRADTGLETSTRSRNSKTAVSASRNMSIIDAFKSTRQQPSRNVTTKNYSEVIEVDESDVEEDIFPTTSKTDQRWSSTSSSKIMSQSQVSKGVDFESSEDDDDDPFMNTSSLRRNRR

As to `N#CC(Cc1ccc(O)c(O)c1)C(=O)Nc1nc(-c2ccc(Br)cc2)cs1` (centres unmarked) [Preparative Example 129, N-(4-(4-bromophenyl)thiazol-2-yl)-2-cyano-3-(3,4-dihydroxyphenyl)propanamide], the IC50 against MRE11 lay within 2 to 10 µM. In addition, the inhibition at 25 µM in the test on DR-GFP U2OS cells was > 75%. In addition, the inhibition at 10 µM in test [1] was 60%.
In turn, `N#CC(Cc1ccc(O)c(O)c1)C(=O)Nc1nc(-c2ccc(OC(F)(F)F)cc2)cs1` (centres unmarked) [Preparative Example 136, 2-cyano-3-(3,4-dihydroxyphenyl)-N-(4-(4-(trifluoromethoxy)phenyl)thiazol-2-yl)propanamide] came in with an IC50 against MRE11 of 2 to 10 µM. For the same compound, the inhibition at 25 µM in the test on DR-GFP U2OS cells was > 75%. Further, the inhibition at 10 µM in test [1] is 40%.
Turning to `CC(C)(C)c1cc(CC(C#N)C(=O)Nc2nc(-c3ccccc3)cs2)cc(C(C)(C)C)c1O` (centres unmarked) [Preparative Example 139, 2-cyano-3-(3,5-di-tert-butyl-4-hydroxyphenyl)-N-(4-phenylthiazol-2-yl)propanamide], the inhibition at 25 µM in the test on DR-GFP U2OS cells was > 75%. The inhibition at 10 µM in test [1] was found to be 70%.
On to `CC(C)(C)c1ccc(-c2csc(NC(=O)C(C#N)Cc3ccc(O)c(O)c3)n2)cc1` (centres unmarked) [Preparative Example 140, N-(4-(4-(tert-butyl)phenyl)thiazol-2-yl)-2-cyano-3-(3,4-dihydroxyphenyl)propanamide], for which, on MRE11, the IC50 is 2 to 10 µM. Besides, the inhibition at 25 µM in the test on DR-GFP U2OS cells was > 75%. Besides, in test [1], the inhibition at 10 µM is 40%.
Regarding `N#CC(Cc1ccc(O)c(O)c1Br)C(=O)Nc1nc(-c2ccccc2)cs1` (centres unmarked) [Preparative Example 148, 3-(2-bromo-3,4-dihydroxyphenyl)-2-cyano-N-(4-phenylthiazol-2-yl)propanamide], the half-inhibitory concentration (IC50) against MRE11 is < 2 µM. Also, the inhibition at 25 µM in the test with DR-GFP U2OS cells was > 75%; in test [1] (25 μM inhibitor), 90%.
At MRE11, `Cc1cccc(-c2csc(NC(=O)C(C#N)Cc3ccc(O)c(O)c3)n2)n1` (centres unmarked) [Preparative Example 158, 2-cyano-3-(3,4-dihydroxyphenyl)-N-(4-(6-methylpyridin-2-yl)thiazol-2-yl)propanamide] came in with an IC50 of 2 to 10 µM. Further, the inhibition at 25 µM in the test on DR-GFP U2OS cells was > 75%.
For `N#CC(Cc1ccc(O)c(O)c1)C(=O)Nc1nc(-c2ccccc2C(F)(F)F)cs1` (centres unmarked) [Preparative Example 159, 2-cyano-3-(3,4-dihydroxyphenyl)-N-(4-(2-(trifluoromethyl)phenyl)thiazol-2-yl)propanamide] the same measures were 2 to 10 µM and < 50%.
The like results for `N#CC(Cc1ccc(O)c(O)c1)C(=O)Nc1nc(-c2ccc(Cl)c(Cl)c2)cs1` (centres unmarked) [Preparative Example 160, 2-cyano-N-(4-(3,4-dichlorophenyl)thiazol-2-yl)-3-(3,4-dihydroxyphenyl)propanamide] were, in that order, < 2 µM and 50 to 75%.
For `Cc1ccccc1-c1csc(NC(=O)C(C#N)Cc2ccc(O)c(O)c2)n1` (centres unmarked) [Preparative Example 161, 2-cyano-3-(3,4-dihydroxyphenyl)-N-(4-(o-tolyl)thiazol-2-yl)propanamide] the same measures were 2 to 10 µM and 50 to 75%.
`N#CC(Cc1ccc(O)c(O)c1)C(=O)Nc1nc(-c2cccc(Cl)c2)cs1` (centres unmarked) [Preparative Example 162, N-(4-(3-chlorophenyl)thiazol-2-yl)-2-cyano-3-(3,4-dihydroxyphenyl)propanamide]: the 50% inhibitory concentration (IC50) on MRE11 is 2 to 10 µM. For the same compound, in the test with DR-GFP U2OS cells, the inhibition at 25 µM lay in the range of 50 to 75%.
`Cc1ccnc(-c2csc(NC(=O)C(C#N)Cc3ccc(O)c(O)c3)n2)c1` (centres unmarked) [Preparative Example 164, 2-cyano-3-(3,4-dihydroxyphenyl)-N-(4-(4-methylpyridin-2-yl)thiazol-2-yl)propanamide]: at MRE11, the 50% inhibitory concentration (IC50) fell in the range of 2 to 10 µM. In the test on DR-GFP U2OS cells, the inhibition at 25 µM was > 75%.
The like results for `Cc1ccc(-c2csc(NC(=O)C(C#N)Cc3ccc(O)c(O)c3)n2)nc1` (centres unmarked) [Preparative Example 165, 2-cyano-3-(3,4-dihydroxyphenyl)-N-(4-(5-methylpyridin-2-yl)thiazol-2-yl)propanamide] were, in that order, < 2 µM and > 75%.
For the compound `CC(C)c1ccc(-c2csc(NC(=O)C(C#N)Cc3ccc(O)c(O)c3)n2)cc1` (centres unmarked) [Preparative Example 166, 2-cyano-3-(3,4-dihydroxyphenyl)-N-(4-(4-isopropylphenyl)thiazol-2-yl)propanamide], on MRE11, the IC50 lay in the range of 2 to 10 µM. Besides, the inhibition at 25 µM with DR-GFP U2OS cells is > 75%.
The like results for `COc1ccnc(-c2csc(NC(=O)C(C#N)Cc3ccc(O)c(O)c3)n2)c1` (centres unmarked) [Preparative Example 167, 2-cyano-3-(3,4-dihydroxyphenyl)-N-(4-(4-methoxypyridin-2-yl)thiazol-2-yl)propanamide] were, in that order, < 2 µM and > 75%.
The like results for `COc1ccc(-c2csc(NC(=O)C(C#N)Cc3ccc(O)c(O)c3)n2)nc1` (centres unmarked) [Preparative Example 168, 2-cyano-3-(3,4-dihydroxyphenyl)-N-(4-(5-methoxypyridin-2-yl)thiazol-2-yl)propanamide] were, in that order, < 2 µM and > 75%.
At MRE11, `CC(C)(C)c1cc(CC(C#N)C(=O)Nc2nc(-c3ccccn3)cs2)cc(C(C)(C)C)c1O` (centres unmarked) [Preparative Example 169, 2-cyano-3-(3,5-di-tert-butyl-4-hydroxyphenyl)-N-(4-(pyridin-2-yl)thiazol-2-yl)propanamide] displayed a 50% inhibitory concentration (IC50) of 10 to 90 µM. Further, in the test on DR-GFP U2OS cells, the inhibition at 25 µM was > 75%.
At MRE11, `COc1cccc(-c2csc(NC(=O)C(C#N)Cc3ccc(O)c(O)c3)n2)n1` (centres unmarked) [Preparative Example 170, 2-cyano-3-(3,4-dihydroxyphenyl)-N-(4-(6-methoxypyridin-2-yl)thiazol-2-yl)propanamide] showed an IC50 of 2 to 10 µM. Also, the inhibition at 25 µM in the test with DR-GFP U2OS cells is 50 to 75%.
`N#CC(Cc1ccc(O)c(O)c1)C(=O)Nc1nc(-c2ccc(Cl)cc2Cl)cs1` (centres unmarked) [Preparative Example 171, 2-cyano-N-(4-(2,4-dichlorophenyl)thiazol-2-yl)-3-(3,4-dihydroxyphenyl)propanamide]: the IC50 at MRE11 was < 2 µM. Moreover, in the test on DR-GFP U2OS cells, the inhibition at 25 µM is > 75%.
The like results for `N#CC(Cc1ccc(O)c(O)c1)C(=O)Nc1nc(-c2ncccc2F)cs1` (centres unmarked) [Preparative Example 172, 2-cyano-3-(3,4-dihydroxyphenyl)-N-(4-(3-fluoropyridin-2-yl)thiazol-2-yl)propanamide] were, in that order, < 2 µM and > 75%.
In the case of `COc1ccc(-c2csc(NC(=O)C(C#N)Cc3ccc(O)c(O)c3)n2)c(F)c1` (centres unmarked) [Preparative Example 173, 2-cyano-3-(3,4-dihydroxyphenyl)-N-(4-(2-fluoro-4-methoxyphenyl)thiazol-2-yl)propanamide], on MRE11, the IC50 was < 2 µM. Also, the inhibition at 25 µM with DR-GFP U2OS cells is > 75%.
For `N#CC(Cc1ccc(O)c(O)c1)C(=O)Nc1nc(-c2cc(C(F)(F)F)ccn2)cs1` (centres unmarked) [Preparative Example 174, 2-cyano-3-(3,4-dihydroxyphenyl)-N-(4-(4-(trifluoromethyl)pyridin-2-yl)thiazol-2-yl)propanamide] the same measures were < 2 µM and > 75%.
For `N#CC(Cc1ccc(O)c(O)c1)C(=O)Nc1nc(-c2cc(Cl)sc2Cl)cs1` (centres unmarked) [Preparative Example 175, 2-cyano-N-(4-(2,5-dichlorothiophen-3-yl)thiazol-2-yl)-3-(3,4-dihydroxyphenyl)propanamide] the same measures were 2 to 10 µM and 50 to 75%.
The like results for `CC(C#N)(Cc1ccc(O)c(O)c1)C(=O)Nc1nc(-c2ccccc2)cs1` (centres unmarked) [Preparative Example 179, 2-cyano-3-(3,4-dihydroxyphenyl)-2-methyl-N-(4-phenylthiazol-2-yl)propanamide] were, in that order, 10 to 90 µM and < 50%.

(Values after US11453663B2, “Substituted propanamides as inhibitors of nucleases” (MASARYKOVA UNIVERZITA, priority 2018, dated 2022).)
